Data taken from patent US7659404B2, “Broad spectrum 2-(substituted-amino)-benzothiazole sulfonamide HIV protease inhibitors” (Tibotec Pharmaceuticals Ltd., priority 2001, dated 2010).

Tests used:
[1] = test system: virus strain F (R13025); test: microbe, parasite or virus in culture; format: cell-based, HIV; conditions: FR=EC50(mutant strain)/EC50(HIV-1 strain LAI); strain F
Method in brief: (§1)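 Anti-HIV activity against multiply mutated clinical isolates is measured in MT4 cells over a five-day incubation, using MTT viability (540 nm) as a proxy for protection from viral cytopathicity. Values are reported as EC50 or as fold change versus the LAI reference strain.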

[2] = test system: virus strain S (R13080); test: microbe, parasite or virus in culture; format: cell-based, HIV; conditions: FR=EC50(mutant strain)/EC50(HIV-1 strain LAI); strain S
Method in brief: as §1

[3] = test system: clinically isolated HIV strain K; test: Antiviral spectrum, cellular assay (fold resistance), strain K; format: cell-based; conditions: FR=EC50(mutant strain)/EC50(HIV-1 strain LAI)
Description: (§2) HIV- or mock-infected MT4 cells were incubated for five days in the presence of various concentrations of the inhibitor. At the end of the incubation period, all HIV-infected cells have been killed by the replicating virus in the control cultures in the absence of any inhibitor. Cell viability is measured by measuring the concentration of MTT, a yellow, water soluble tetrazolium dye that is converted to a purple, water insoluble formazan in the mitochondria of living cells only. Upon solubilization of the resulting formazan crystals with isopropanol, the absorbance of the solution is monitored at 540 nm. The values correlate directly to the number of living cells remaining in the culture at the completion of the five day incubation. The inhibitory activity of the compound was monitored on the virus-infected cells and was expressed as EC50 and EC90. These values represent the amount of the compound required to protect 50% and 90%, respectively, of the cells from the cytopathogenic effect of the virus. The toxicity of the compound was measured on the mock-infected cells and was expressed as CC50, which represents the concentration of compound required to inhibit the growth of the cells by 50%. The selectivity index (SI) (ratio CC50/EC50) is an indication of the selectivity of the anti-HIV activity of the inhibitor.
(§3) Because of the increasing emergence of drug resistant HIV strains, the present compounds were tested for their potency against clinically isolated HIV strains harboring several mutations. These mutations are associated with resistance to protease inhibitors and result in viruses that show various degrees of phenotypic cross-resistance to the currently commercially available drugs such as for instance saquinavir, ritonavir, nelfinavir, indinavir and amprenavir.
(§4) As a measure of the broad spectrum activity of the present compounds, the fold resistance (FR) defined as FR=EC50(mutant strain)/EC50(HIV-1 strain LAI).

[4] = test system: clinically isolated HIV strain N; test: Antiviral spectrum, cellular assay (fold resistance), strain N; format: cell-based; conditions: FR=EC50(mutant strain)/EC50(HIV-1 strain LAI)
Description: as §2, §3, §4

[5] = test system: clinically isolated HIV strain B; test: Antiviral spectrum, cellular assay (fold resistance), strain B; format: cell-based; conditions: FR=EC50(mutant strain)/EC50(HIV-1 strain LAI)
Description: as §2, §3, §4

[6] = test system: clinically isolated HIV strain E; test: Antiviral spectrum, cellular assay (fold resistance), strain E; format: cell-based; conditions: FR=EC50(mutant strain)/EC50(HIV-1 strain LAI)
Description: as §2, §3, §4

[7] = test system: clinically isolated HIV strain Q; test: Antiviral spectrum, cellular assay (fold resistance), strain Q; format: cell-based; conditions: FR=EC50(mutant strain)/EC50(HIV-1 strain LAI)
Description: as §2, §3, §4

[8] = test system: clinically isolated HIV strain P; test: Antiviral spectrum, cellular assay (fold resistance), strain P; format: cell-based; conditions: FR=EC50(mutant strain)/EC50(HIV-1 strain LAI)
Description: as §2, §3, §4

[9] = test system: clinically isolated HIV strain L; test: Antiviral spectrum, cellular assay (fold resistance), strain L; format: cell-based; conditions: FR=EC50(mutant strain)/EC50(HIV-1 strain LAI)
Description: as §2, §3, §4

[10] = test system: clinically isolated HIV strain M; test: Antiviral spectrum, cellular assay (fold resistance), strain M; format: cell-based; conditions: FR=EC50(mutant strain)/EC50(HIV-1 strain LAI)
Description: as §2, §3, §4

[11] = test system: clinically isolated HIV strain G; test: Antiviral spectrum, cellular assay (fold resistance), strain G; format: cell-based; conditions: FR=EC50(mutant strain)/EC50(HIV-1 strain LAI)
Description: as §2, §3, §4

[12] = test system: clinically isolated HIV strain A; test: Antiviral spectrum, cellular assay (fold resistance), strain A; format: cell-based; conditions: FR=EC50(mutant strain)/EC50(HIV-1 strain LAI)
Description: as §2, §3, §4

[13] = test system: clinically isolated HIV strain I; format: cell-based; conditions: FR=EC50(mutant strain)/EC50(HIV-1 strain LAI)
Method in brief: as §1

[14] = test system: clinically isolated HIV strain O; format: cell-based; conditions: FR=EC50(mutant strain)/EC50(HIV-1 strain LAI)
Method in brief: as §1

[15] = test system: clinically isolated HIV strain H; format: cell-based; conditions: FR=EC50(mutant strain)/EC50(HIV-1 strain LAI)
Method in brief: as §1

[16] = test system: clinically isolated HIV strain T; format: cell-based; conditions: FR=EC50(mutant strain)/EC50(HIV-1 strain LAI)
Method in brief: as §1

[17] = test system: clinically isolated HIV strain J; format: cell-based; conditions: FR=EC50(mutant strain)/EC50(HIV-1 strain LAI)
Method in brief: as §1

[18] = test system: clinically isolated HIV strain R; test: Antiviral spectrum, cellular assay (fold resistance), strain R; format: cell-based; conditions: FR=EC50(mutant strain)/EC50(HIV-1 strain LAI)
Description: as §2, §3, §4

[19] = test system: clinically isolated HIV strain C; test: Antiviral spectrum, cellular assay (fold resistance), strain C; format: cell-based; conditions: FR=EC50(mutant strain)/EC50(HIV-1 strain LAI)
Description: as §2, §3, §4

[20] = test system: clinically isolated HIV strain D; test: Antiviral spectrum, cellular assay (fold resistance), strain D; format: cell-based; conditions: FR=EC50(mutant strain)/EC50(HIV-1 strain LAI)
Description: as §2, §3, §4

| SMILES | fold resistance (FR), strain F [1] | fold resistance (FR), strain S [2] | fold resistance (FR), strain K [3] | fold resistance (FR), strain N [4] | fold resistance (FR), strain B [5] | fold resistance (FR), strain E [6] | fold resistance (FR), strain Q [7] | fold resistance (FR), strain P [8] | fold resistance (FR), strain L [9] | fold resistance (FR), strain M [10] | fold resistance (FR), strain G [11] | fold resistance (FR), strain A [12] | fold resistance (FR), strain I [13] | fold resistance (FR), strain O [14] | fold resistance (FR), strain H [15] | fold resistance (FR), strain T [16] | fold resistance (FR), strain J [17] | fold resistance (FR), strain R [18] | fold resistance (FR), strain C [19] | fold resistance (FR), strain D [20] |
| --- | --- | --- | --- | --- | --- | --- | --- | --- | --- | --- | --- | --- | --- | --- | --- | --- | --- | --- | --- | --- |
| CC(C)CN(CC(O)C(Cc1ccccc1)NC(=O)OC1COC2OCCC12)S(=O)(=O)c1ccc2nc(NC(=O)CN3CCOCC3)sc2c1 (mixture of isomers) [Compound 10] | 0.5 | 0.5 | 0.3 | 0.0 | 0.4 | 0.4 | 0.3 | 0.3 | 0.2 | 0.3 | 0.5 | 0.4 | 0.4 | 0.4 | 0.4 | 4.9 | 0.3 | 0.3 | 0.6 | 0.5 |
| CC(=O)Nc1nc2ccc(S(=O)(=O)N(CC(C)C)CC(O)C(Cc3ccccc3)NC(=O)OC3COC4OCCC34)cc2s1 (mixture of isomers) [Compound 1] | 0.8 | 1.0 | 0.4 | 1.0 | 0.3 | 0.6 | 0.8 | 0.2 | 0.2 | 0.5 | 0.3 | 0.4 | 0.8 | 0.4 | 0.9 | 5.1 | 0.5 | 0.7 | 0.7 | 0.7 |
| CC(C)CN(C[C@@H](O)[C@H](Cc1ccccc1)NC(=O)O[C@H]1CO[C@H]2OCC[C@H]21)S(=O)(=O)c1ccc2nc(NC(=O)CN3CCCC3)sc2c1.O=C(O)/C=C/C(=O)O [Compound 13] | 0.6 | 1.0 | 0.2 | 1.0 | 0.2 | 0.2 | 0.4 | 0.2 | 0.1 | 0.2 | 0.2 | 0.2 | 0.3 | 0.3 | 0.6 | 5.8 | 0.2 | 0.2 | 0.2 | 0.2 |
| CC(C)CN(C[C@@H](O)[C@H](Cc1ccccc1)NC(=O)O[C@H]1CCOC1)S(=O)(=O)c1ccc2nc(NC(=O)CN3CCN(C)CC3)sc2c1.O=C(O)C(F)(F)F [Compound 64] | 4.6 | 17.0 | 0.7 | 0.9 | 0.7 | 0.7 | 2.3 | 0.2 | 0.2 | 0.7 | 0.6 | 0.7 | 1.3 | 0.8 | 0.9 | 165.5 | 1.0 | 0.6 | 0.6 | 0.6 |
| CC(C)CN(C[C@@H](O)[C@H](Cc1ccccc1)NC(=O)O[C@H]1CCOC1)S(=O)(=O)c1ccc2nc(NC(=O)CN3CCNCC3)sc2c1 [Compound 35] | 2.1 | 4.3 | 0.4 | 1.1 | 0.9 | 0.9 | 0.9 | 0.2 | 0.2 | 0.6 | 0.5 | 0.5 | 0.8 | 0.3 | 0.8 | 22.2 | 0.8 | 0.9 | 0.6 | 0.5 |
| CC(C)CN(C[C@@H](O)[C@H](Cc1ccccc1)NC(=O)O[C@H]1CO[C@H]2OCC[C@H]21)S(=O)(=O)c1ccc2nc(NC(=O)CN3CCCC3)sc2c1.Cl [Compound 14] | 0.4 | 0.7 | 0.2 | 0.9 | 0.2 | 0.3 | 0.3 | 0.2 | 0.1 | 0.2 | 0.2 | 0.2 | 0.4 | 0.3 | 0.5 | 5.9 | 0.3 | 0.2 | 0.2 | 0.2 |
| CC(C)CN(C[C@@H](O)[C@H](Cc1ccccc1)NC(=O)O[C@H]1CCOC1)S(=O)(=O)c1ccc2nc(NC(=O)CN(C)C)sc2c1 [Compound 34] | 61.9 | 99.6 | 1.3 | 4.0 | 5.9 | 4.5 | 4.0 | 0.9 | 1.2 | 1.2 | 3.2 | 5.0 | 5.6 | 5.0 | 11.4 | 802.7 | 5.8 | 1.1 | 5.5 | 6.6 |
